Experiments:
TLR-4 = experiment: Western blot of TLR-4 in HepG2 cells; format: cell-based, Human; details: 2.5 mM; HepG2 cells (liver epithelium); hypoxia
Experimental: (§1) Human Hepatocellular carcinoma cell line, HepG2, was purchased from American Type Culture Collection (Manassas, VA, USA). The HepG2 cells were maintained in RPMI 1640 containing 10% fetal bovine serum (Life Technologies, Gaithersburg, MD, USA), 100 IU/ml penicillin, and 100 μg/ml streptomycin (Welgene, Daegu, South Korea).
To prepare whole cell lysate, cells were lysed with lysis buffer (1% NP-40, 0.25% sodium deoxycholate, 150 mM NaCl, 1 mM EDTA, 1% Triton X-100, 50 mM Tris-HCl (pH 7.4), 10% Glycerol) with protease inhibitor cocktail (Roche, Basel, Switzerland) and phosphatase inhibitors (NA3VO4 1 mM, NaF 100 mM). Then, protein concentration was measured using the Bicinchoninic acid (BCA) assay kit (Thermo Scientific, Waltham, MA). Whole cell or nuclear lysates were transferred onto polyvinylidene fluoride membranes (Merck Millipore, Billerica, MA, USA). After blocking in 5% non-fat milk (Bio-Rad, Hercules, CA, USA) for 1 h, the membranes were incubated overnight at 4° C. with primary antibody diluted in TBST containing 100 mM Tris-HCl (pH 7.5), 1.5 M NaCl, and 0.5% Tween-20 obtained from Sigma-Aldrich, to which 5% BSA and 0.1% sodium azide (Sigma-Aldrich) had been added. Specific primary antibodies to HIF-1α (1:1000), HIF-2α (1:1000), LDH-A (1:1000), LDH-B (1:1000), TLR-4 (1:1000), NF-κB (1:1000), VEGF (1:1000), α-tubulin (1:1000), Actin (1:1000), and GAPDH (1:5000). […]

[1] = system: hypoxia inducible factor-1α (HIF-1α); experiment: Immunocytochemistry of HIF-1α in ARPE-19 cells; format: cell-based, Human; details: 2.5 mM
Experimental: as §1, with “retinal pigment epithelium” for “Hepatocellular carcinoma”, “ARPE-19,” for “HepG2,”, “ARPE-19” for “HepG2”, “RPMI1640” for “RPMI 1640”
(§2) ARPE-19 and SK-N-SH cells were fixed on bio-coated coverslips (BD bioscience, San Jose, CA, USA) by 4% PFA for 20 min and then incubated with the primary antibodies for 15 h. The primary antibodies were as follows: HIF-1a (1:300, BD Biosciences, San Jose, CA, USA); LDH-A (1:300, Santa Cruz Biotechnology, Santa Cruz, CA, USA); LDH-B (1:300, Santa Cruz Biotechnology, Santa Cruz, CA, USA); NF-κB (1:300, Santa Cruz Biotechnology, Santa Cruz, CA, USA); TLR-4 (1:300, Santa Cruz Biotechnology, Santa Cruz, CA, USA); apoE (1:200, Santa Cruz Biotechnology, Santa Cruz, CA, USA). After PBS wash, the cells were incubated with anti-mouse secondary biotinylated antibody (1:2000, Vector Laboratorie, Burlingame, CA, USA) and visualized with streptavidin conjugated to Fluorescein (Vector Laboratorie, Burlingame, CA, USA). […] Confocal fluorescence images were obtained with confocal laser scanning microscopy (LSCM, Nikon A1+, Tokyo, Japan) under a 60× oil immersion lens.

lactate dehydrogenase B = experiment: Immunocytochemistry of lactate dehydrogenase B in ARPE-19 cells; format: cell-based, Human; details: 2.5 mM, hypoxia
Experimental: as §1, with “retinal pigment epithelium” for “Hepatocellular carcinoma”, “ARPE-19,” for “HepG2,”, “ARPE-19” for “HepG2”, “RPMI1640” for “RPMI 1640”
as §2

[2] = system: collagen-induced rheumatoid arthritis mice; experiment: Rheumatoid arthritis model, Type II collagen induction; format: in vivo, DBA1/J mice; details: 21 days after treatment
Experimental: Animals. […] Six-week old male DBA1/J mice were obtained from Japan SLC Inc. (Shizuoka, Japan) and bred under specific-pathogen-free (SPF) conditions. All animals were maintained in a 12-hour light/dark cycle at 22-25° C. with free access to food and water.
Preparation of agents. Two mg/mL Type II collagen was mixed with the same volume of complete Freund's adjuvant (CFA) for primary induction of rheumatoid arthritis. Two mg/mL Type II collagen was mixed with the same volume of incomplete Freund's adjuvant (IFA) for secondary induction of rheumatoid arthritis.
Primary induction: 0.1 mL of the mixed solution (Type II collagen+CFA) was injected subcutaneously into the area of 1.5 cm from the base of tail of mice. The administration site and depth were the same in all mice.
Secondary induction: 21 days after primary induction, 0.1 mL of the mixed solution (Type II collagen+IFA) was injected subcutaneously into the area of 1.5 cm from the base of tail of mice. The administration site and depth were the same in all mice.
Histological analysis. The mice foot and knee joint were dissected and fixed (4% paraformaldehyde) and decalcified for 2 days at 4° C. […] Mount with mounting medium.

[3] = system: Indomethacin-induced colitis rats; experiment: Colitis model, subcutaneous Indomethacin; format: in vivo, Sprague-Dawley (SD) rats; details: Four-week after treatment
Experimental: Animals. […] Six-week old male Sprague-Dawley (SD) rats were obtained from Samtako Co. (Osan, Gyeonggi-do, Republic of Korea) and bred under specific-pathogen-free (SPF) conditions. All animals were maintained in a 12-hour light/dark cycle at 22-25° C. with free access to food and water.
Agents and animal model. To induce Crohn's disease and colitis, Indomethacin was purchased from Sigma Chemical (St. Louis, Missouri, USA) and was dissolved in saline. […] Two models of inflammatory bowel disease were used. Crohn's disease was induced by oral administration of Indomethacin (7 mg/kg), and colitis was induced by subcutaneous injections of Indomethacin (7 mg/kg) daily at a 24 h intervals (FIGS. 40 and 42).
Histological analysis. The fixed flat-mounts were dehydrated in a graded series of ethanol and embedded in paraffin.

CC(O)C(=O)[O-].CC(O)C(=O)[O-].[Ca+2] (stereo not shown) [calcium lactate]
inflammatory factor (TLR-4), Western blot (TLR-4): decreased
hypoxia inducible factor-1α (HIF-1α), immunocytochemistry [1]: decreased
lactate dehydrogenase B, immunocytochemistry (lactate dehydrogenase B): increased
inflammatory edema in the toes and knee joint ([2]; 2 mg/kg daily subcutaneous): clearly decreased
morphology of toes and knee joint vs. normal control [2]: morphologically recovered
Superficial ulceration, polyp, and inflammation in the intestinal tissues ([3]; 2 mg/kg daily subcutaneous): clearly decreased
morphology of intestinal tissues vs. normal control [3]: morphologically recovered

— US12576107B2, “Methods of treating chronic inflammatory diseases” (METIMEDI PHARMACEUTICALS CO., LTD., priority 2018, dated 2026)
